This is an account of results in patent US12180214B2, “Crystalline forms of (s)-4-amino-6-((1-(3-chloro-6-phenylimidazo[1,2-b]pyridazine-7-yl)ethyl)amino)pyrimidine-5-carbonitrile as inhibitors of phosphatidylinositol-3-kinase” (HUTCHISON MEDIPHARMA LIMITED, priority 2018, dated 2024).

Converted amounts (≈) assume the structure as drawn.

Holding throughout (type): physicochemical
Series [1] can be described thus: Hygroscopicity by dynamic vapor sorption (DVS). To be noted: relative humidity of 0-95% at 25° C. As for the experimental part: Determination method: the test samples of Form I, Form IV, and Form V of compound of Formula A were placed in the sample dishes of the dynamic vapor sorption instrument (DVS-INTRINSIC) respectively. Then the weight gains by moisture absorption of the samples were measured at a relative humidity of 0-95% at 25° C. The results were shown in FIG. 16, FIG. 17, and FIG. 18.

Series [2] can be described thus: Stability of Form I, Form IV, and Form V under high temperature, high humidity and illumination conditions. To be noted: for Stability (chemical purity and crystalline form), conclusion: high temperature, high humidity, and illumination conditions for 10 days. As for the experimental part: Determination method: the test samples of Form I, Form IV, and Form V of compound of Formula A were placed on the culture dishes respectively, which were uncovered and placed in sealed clean containers. The containers were placed under the conditions of a temperature of 60° C., a temperature of 25° C. and a relative humidity of 92.5%±5%, and an illumination of 4500 lx±500 lx respectively for 10 days. Then sampled, investigated for the purity and crystalline form of the samples, and compared the investigation results.

The nature of series [3]: Solubility of Form I, Form IV, and Form V in buffers of different pH. To be noted: for solubility at 0.5 hour / solubility at 2 hours: buffer, 37 °C, thermodynamic from solid; for Solubility in the test buffers, conclusion: buffers pH 1.2-6.8, 37° C. As to the method:
Determination method: excess amount of samples of Form I, Form IV, and Form V of compound of Formula A were suspended in the buffers of different pH respectively. The system was saturated by shaking for a period of time at 37° C. in a water bath of constant temperature. Then the system was filtered, and the filtrate was used for determining solubility of the samples. The buffers of different pH were prepared according to the US pharmacopeia (USP40-NF35).

Series [4] is described as follows: Stability of Form IV mixed with excipients (starch, microcrystalline cellulose). To be noted: high temperature, high humidity, and illumination conditions, 30 days. As for the experimental part:
Determination method: 50 mg of samples of Form IV of compound of Formula A were mixed with 200 mg of excipients starch and microcrystalline cellulose respectively. The mixtures were used as Lest samples and placed on the culture dishes respectively, which were uncovered and placed in sealed clean containers. Then the containers were placed under the conditions of a temperature of 60° C., a temperature of 25° C. and a relative humidity of 92.5%±5%, and an illumination of 4500 lx±500 lx respectively for 30 days. Then sampled, investigated for the change of crystalline form of the samples, and compared the investigation results.

[5] abbreviates: High humidity (92.5% RH), 25° C., 5 days.
The mark [6] stands for this setting: High humidity (92.5% RH), 25° C., 10 days.
Where [7] appears, read: High temperature (60° C.), 5 days.
[8] abbreviates: High temperature (60° C.), 10 days.
Setting [9] is: Illumination (4500 Lx), 10 days.

For the molecule `C[C@H](Nc1ncnc(N)c1C#N)c1cc2ncc(Cl)n2nc1-c1ccccc1` [Form I, (S)-4-amino-6-((1-(3-chloro-6-phenylimidazo[1,2-b]pyridazin-7-yl)ethyl)amino)pyrimidine-5-carbonitrile], the “Hygroscopicity (weight gain by moisture absorption)” value (from here on “Hygroscopicity”) in series [1] is recorded as “non-hygroscopic”. Also, the “Chemical purity (%)” value in series [2] (0 day) is listed as 99.76%; in series [2] (setting [5]), 99.65%; in series [2] (setting [6]) it was 99.60%; in series [2] (setting [7]) it was 99.63%; in series [2] (setting [8]), 99.63%; in series [2] (Illumination (4500 Lx), 5 days), 99.61%. In addition, the “Chemical purity (%)” value in series [2] (setting [9]) came out at 99.45%. Also, in series [2], the “Stability (chemical purity and crystalline form), conclusion” value was “stable”. Also, the solubility at 0.5 hour in series [3] (pH 1.2, simulated gastric fluid, buffer pH 1.2, shaken at 37° C. water bath for 0.5 hour) is 10800 µg/mL (≈ 27600 µM); in series [3] (pH 2.1, aqueous buffer, buffer pH 2.1, shaken at 37° C. water bath for 0.5 hour), 800 µg/mL (≈ 2050 µM); in series [3] (pH 4.5, aqueous buffer, buffer pH 4.5, shaken at 37° C. water bath for 0.5 hour), 40 µg/mL (≈ 102 µM); in series [3] (pH 6.8, aqueous buffer, buffer pH 6.8, shaken at 37° C. water bath for 0.5 hour) it was 30 µg/mL (≈ 76.8 µM). For the same molecule, in series [3], the “Solubility in the test buffers, conclusion” value (“Solubility … conclusion” for short) is given as “good solubility”.
On to `C[C@H](Nc1ncnc(N)c1C#N)c1cc2ncc(Cl)n2nc1-c1ccccc1` [Form IV, (S)-4-amino-6-((1-(3-chloro-6-phenylimidazo[1,2-b]pyridazin-7-yl)ethyl)amino)pyrimidine-5-carbonitrile], for which the “Hygroscopicity” value in series [1] was “non-hygroscopic”. For the same molecule, the “Chemical purity (%)” value in series [2] (0 day) is on record as 99.27%; in series [2] (setting [5]) it was 99.68%; in series [2] (setting [6]), 99.68%; in series [2] (setting [7]), 99.57%; in series [2] (setting [8]) it was 99.68%; in series [2] (Illumination (4500 Lx), 5 days), 99.59%. Moreover, the “Chemical purity (%)” value in series [2] (setting [9]) was 99.55%. In addition, the “Stability (chemical purity and crystalline form), conclusion” value in series [2] was “stable”. The solubility at 2 hours in series [3] (pH 1.2, simulated gastric fluid, buffer pH 1.2, shaken at 37° C. water bath for 2 hours) is 8560 µg/mL (≈ 21900 µM); in series [3] (pH 2.1, aqueous buffer, buffer pH 2.1, shaken at 37° C. water bath for 2 hours) it was 500 µg/mL (≈ 1280 µM); in series [3] (pH 4.5, aqueous buffer, buffer pH 4.5, shaken at 37° C. water bath for 2 hours), 20 µg/mL (≈ 51.2 µM); in series [3] (pH 6.8, aqueous buffer, buffer pH 6.8, shaken at 37° C. water bath for 2 hours), 20 µg/mL (≈ 51.2 µM). In series [3], the “Solubility … conclusion” value was “good solubility”. The “Stability mixed with excipients, conclusion” value in series [4] is “stable”.
In the case of `C[C@H](Nc1ncnc(N)c1C#N)c1cc2ncc(Cl)n2nc1-c1ccccc1` [Form V, (S)-4-amino-6-((1-(3-chloro-6-phenylimidazo[1,2-b]pyridazin-7-yl)ethyl)amino)pyrimidine-5-carbonitrile], in series [1], the “Hygroscopicity” value is recorded as “non-hygroscopic”. The “Chemical purity (%)” value in series [2] (0 day) is 99.70%; in series [2] (setting [5]) it was 99.88%; in series [2] (setting [6]) it was 99.87%; in series [2] (setting [7]), 99.88%; in series [2] (setting [8]) it was 99.87%; in series [2] (Illumination (4500 Lx), 5 days), 99.85%. The “Chemical purity (%)” value in series [2] (setting [9]) stood at 99.81%. The “Stability (chemical purity and crystalline form), conclusion” value in series [2] is “stable”. The “Solubility” value in series [3] (buffer pH 1.2, shaken at 37° C. water bath for 2 hours) worked out at 9.64 mg/mL (≈ 24700 µM); in series [3] (buffer pH 2.1, shaken at 37° C. water bath for 2 hours) it was 0.58 mg/mL (≈ 1480 µM); in series [3] (buffer pH 4.5, shaken at 37° C. water bath for 2 hours) it was 0.02 mg/mL (≈ 51.2 µM); in series [3] (buffer pH 6.8, shaken at 37° C. water bath for 2 hours) it was 0.02 mg/mL (≈ 51.2 µM). Also, the “Solubility … conclusion” value in series [3] is “good solubility”.
